In patent US20130157261A1, “Compositions and Methods for Quantitative Histology, Calibration of Images in Fluorescence Microscopy, and ddTUNEL Analyses” (The Methodist Hospital Research Institute, priority 2011, published 2013):

Legend:
[1] = system: normal human astrocytes (NHA)
Procedure: (§1) Normal human astrocytes (NHA) were obtained from Lonza (Walkersville, Md., USA) and grown subject to their recommendations. NHA were grown to confluency in Astrocyte Cell Basal Medium supplemented with 3% FBS, Glutamine, Insulin, fhEGF, GA-1000 and ascorbic acid in 16-well Lab-Tek slide chambers (Nalge Nunc, Rochester, N.Y., USA), in a total volume of 240 μL.
NHA were incubated for 1 hour with probes before fixation. Fixation in buffered paraformaldehyde (PFA) was performed in two stages. Firstly, a […] of ice-cold 8% PFA was added to each well, then gently aspirated and the wells were twice washed with ice-cold 2% PFA and then allowed to completely fix at 4° C. After fixation, cells were washed twice in 1×PBS (Thermo Fisher Scientific, Rockford, Ill., USA). The tanks were then removed from the slides, the well area covered with Fluoromount-G (SouthernBiotech, Ill., USA), cover-slipped and sealed with nail varnish.
DNA was visualized using 1 μM Hoechst 33258 (Cat. No. H1398), mitochondrial membrane potential with 500 nM Mitotracker® Red (Dagda et al., 2009) (Cat. No. M22425), hydrogen peroxide using 5 μM H2DCFAM (Whiteman et al., 2009; Setsukinai et al., 2003) (Cat. No. D399), mitochondrial superoxide generation with 5 μM MitoSOX™ Red (Abramov et al., 2010) (Cat. No. M36008), HO. was assayed using 5 μM hydroxyphenyl fluorescein (Setsukinai et al., 2003) (HPF) (Cat. No. H36004), with reagents obtained from Molecular Probes (Eugene, Oreg., USA).
(§2) 3% FCS was present in the NHA medium throughout the time-course. To generate the time-course shown in FIG. 17A and FIG. 17B, NHA were exposed to Mitotracker, H2DCFAM and Hoechst at t=0.

Caspase-3 = conditions: NHA, 14.4 μM thimerosal, 1 hr, vs control
Procedure: (§3) Fixed cells were permeabilized using 1×PBS with 0.1% Triton X-100®. Hydrazine reactive aldehyde/ketones were labeled using 225 μM Biotin-XX hydrazide (Hensley, 2009) (Cat. No. B2600) and visualized using Texas Red-Avidin (Cat. No. A820). The activity of Caspase-3 in fixed, 0.1% Triton-permeabilized cells was measured using the R110-EnzChek® Assay Kit (Molecular Probes, Cat. No. E13184), and incubating cells for 1 h at 37° C. (Scott et al., 2003).
as §2

[2] = system: normal human astrocytes (NHA); conditions: 14.4 μM thimerosal, 1 hr, vs control (FIG. 21)
Procedure: as §1, §3, §2

[3] = system: normal human astrocytes (NHA); conditions: 14.4 μM thimerosal
Procedure: NHA were incubated for 1 hour with probes before fixation. Fixation in buffered paraformaldehyde (PFA) was performed in two stages. Firstly, a 50-4 aliquot of ice-cold 8% PFA was added to each well, then gently aspirated and the wells were twice washed with ice-cold 2% PFA and then allowed to completely fix at 4° C. After fixation, cells were washed twice in 1×PBS (Thermo Fisher Scientific, Rockford, Ill., USA). The tanks were then removed from the slides, the well area covered with Fluoromount-G (SouthernBiotech, Ill., USA), cover-slipped and sealed with nail varnish.

[4] = system: normal human astrocytes (NHA); remark: listed apart in the source
Description: as §2

[5] = 14.4 μM thimerosal, 1 hr, vs control (FIG. 21)

## C[CH2][Hg][S]c1ccccc1C(=O)[O-].[Na+] [Thimerosal]
[1]; 14.4 μM thimerosal, 1 hr
  increase in HO. greater than the increase in superoxide generation: ≈ 80%
  increase in superoxide generation per cell: 90%
[1]; 14.4 μM thimerosal, 1 hr, deconvolution of signals
  more HO. generation per superoxide: 60%
[1]; [5]
  increase in HO.: 300%
  increase in internal mitochondrial steady state level of superoxide: ≈ 70%
[1]; 60 min, 0-14.4 μM
  thimerosal concentration at which a loss of mitochondrial signal and of DCF was observed: > 7.2 µM
Caspase-3
  increase in Caspase-3 activity: five-fold
[2]
  increase in cellular hydrazine reactive carbonyls (matches superoxide increase): ≈ 70%
[3]
  time at which levels of cellular DCF began to fall: > 40 min
[3]; 60 min, fit of intensity profiles
  amount of ROS (DCF) generated by mitochondria vs control mitochondria: four times
[3]; 60 min, vs control
  increase in ROS (DCF): two-fold
[3]; 1 hr, vs control
  increase in steady-state production of reactive oxidants (H2DCF-AM): 200%
[4]; [5]
  increase in 3′OH DNA nicks: 300%
  increase in levels of mitochondrial DNA breaks: 240%
  increase in levels of oxidized bases/apurinic or apyrimidinic sites: 460%
[4]; Thimerosal treatment
  increase in levels of oxidant damaged mitochondrial DNA bases: five-fold
